The values that follow are results of earlier work, collected in patent EP1060743A1, “Oral cisapride dosage forms with an extended duration” (DEVELOPMENT CENTER FOR BIOTECHNOLOGY, priority 1999, dated 2000).

Like-named read-outs stand apart in the source and are kept apart here.

For the molecule `COc1cc(N)c(Cl)cc1C(=O)NC1CCN(CCCOc2ccc(F)cc2)CC1OC` (racemic) [cisapride, (±)-cis-4-amino-5-chloro-N-1-[3-(4-fluorophenoxy)propyl]-3-methoxy-4-piperidine-2-methoxybenzamide monohydrate], the solubility of cisapride entry runs as follows: (pH condition near neutral (pH of intestinal fluid)) “almost insoluble”; (under acidic conditions) “better solubility”.
